# According to PubChem BioAssay AID1996:
# Settings: buffer; pH 7.4; 200.0 µM
row,SMILES,solubility kinetic [µg/mL]
1,CN(C1=NC(=O)CS1)c1ccc(O)cc1,> 33.3
2,COc1ccc(S(N)(=O)=O)cc1C(=O)OCC1CCCCC1,48.1
3,CC(=O)C1=C(c2ccccc2)NC(=O)NC1c1ccc(O)c(Cl)c1 (centres undefined),> 51.4
4,O=C(NCCc1ccccc1)c1coc(=O)c(Br)c1,9.8
5,COc1ccccc1CN(C)C(=O)COC(=O)c1cc(C)oc1C,> 49.7
6,COc1ccc(S(=O)(=O)/C(C#N)=C/Nc2cccc(F)c2)cc1,< 0.4
7,O=C(NCCc1ccccc1)C1CCN(C(=O)c2ccc(F)cc2)CC1,47.4
8,CS(=O)(=O)c1ccc(Cl)c(NC(=O)COC(=O)c2ccc(S(=O)(=O)N3CCCC3)cc2)c1,10.5
9,CCOP(=O)(OCC)C(NC(=O)c1cccc(C)c1)C(Cl)(Cl)Cl (centres undefined),56.3
10,O=C(c1ccc(Cl)cc1)C1CCN(Cc2ccccc2)CC1,> 47.1
11,O=C(Nc1sc2c(c1C(=O)O)CCCC2)c1ccc(F)cc1,41.2
12,CC(=O)N1CCOCCOCCOCC1,> 32.6
13,CCC(=O)c1ccc(OCC(=O)Nc2ccc(S(=O)(=O)Nc3cc(C)nc(C)n3)cc2)cc1,> 70.3
14,Cc1csc2nc(NC(=O)c3ccccc3)sc(=O)c12,0.9
15,O=C(Cc1ccc(Br)cc1)NCc1ccccc1,4.1
16,CC(NC(=O)c1ccco1)C(=O)Nc1nccs1 (centres undefined),> 39.8
17,CCOC(=O)N1CCN=C1SCc1ccc(C(F)(F)F)cc1,13.6
18,NC(=O)c1ccccc1NC(=O)Cc1cccs1,38.3
19,O=C(CC1SC(=Nc2ccc(O)cc2)NC1=O)Nc1ccccc1 (centres undefined),3.9
20,c1ccc(C2Nc3ccccc3C3OCCCC23)cc1 (centres undefined),7.3

row,SMILES,solubility kinetic [µg/mL]
1,O=[N+]([O-])C(=C1NCCN1)C(Cl)=C(Cl)Cl,> 38.8
2,O=C(Nc1cc2c3c(c1)CC(=O)N3CCC2)c1ccc(Br)cc1,10.3
3,O=C1CSC(c2ccccc2[N+](=O)[O-])N1c1ccc(O)cc1 (centres undefined),> 47.4
4,O=[N+]([O-])c1ccc([N+](=O)[O-])c(Nc2ccc(N3CCOCC3)cc2)c1,< 0.2
5,CCOc1ccc(S(=O)(=O)NC(C)C(=O)NCc2ccccn2)cc1 (centres undefined),> 54.5
6,O=C1c2ccccc2C(=O)N1Cc1cc(Cl)c(O)c([N+](=O)[O-])c1,> 49.9
7,C=C(c1ccccc1O)n1ccnc1,> 27.9
8,COc1ccc(NC(=O)NCCCCc2ccccc2)cc1OC,0.6
9,CCc1c(C)nc(N2CCN(c3ccc(F)cc3)CC2)[nH]c1=O,2.1
10,C=CCOC(=O)C1=C(C)NC(=O)NC1c1ccc(N(C)C)cc1 (centres undefined),5.8
11,COC(=O)c1cc(-c2ccc(OC)cc2)on1,9.7
12,C/C(N)=C(/C#N)C(=O)COC(=O)Cc1coc2cc(C)ccc12,10.2
13,Cc1cc(NC(=O)CN2C(=O)NC(CC(C)C)C2=O)no1 (centres undefined),> 44.1
14,CCN(CC)c1ccc(Nc2nc(-c3cccnc3)cs2)cc1,< 0.2
15,CC(C)=CCN1CCN(Cc2c[nH]c3ccccc23)CC1CCO (centres undefined),> 49.1
16,CC(=O)N[C@@H](CC(=O)O)C(=O)O,> 26.3
17,C=CCn1c(SCC(N)=O)nc2sc3c(c2c1=O)CCC3,38.6
18,O=C(O)/C=C/C(=O)c1c(-c2ccccc2)[nH]c2ccccc12,> 43.7
19,CCOc1ccc(S(=O)(=O)N2CCN(C(=O)COc3ccc(Br)cc3)CC2)cc1,2.3
20,COc1ccc(NC(=S)NCc2cccs2)cc1OC,19.6

row,SMILES,solubility kinetic [µg/mL]
1,Cc1cc(C)cc(NC(=O)CN2CCN(C(=O)c3cccs3)CC2)c1,> 53.6
2,COc1ccc(C(=O)COC(=O)CNC(=O)c2ccc(OC)cc2)cc1,17.3
3,CC1=C/C(=C/N(C)C)C(=O)O1,15.7
4,Cc1cccc(NC(=O)COC(=O)[C@@H]2CCCN2C(=O)c2cccs2)c1,2.8
5,Nc1nc(NCc2ccco2)nc(Nc2ccccc2)c1[N+](=O)[O-],0.4
6,O=C(C1CCCCC1)N1CCc2[nH]c3ccc(F)cc3c2C1,0.4
7,CCC(=O)N1CCN=C1SCc1c(F)cccc1Cl,12.6
8,CC(C)Nc1nc(-c2ccncc2)nc(-c2ccccc2)c1C#N,< 0.1
9,O=C(Nc1cccc(F)c1)NC1CCCCCCC1,9
10,COC(=O)CN(C#N)c1nc(NCc2ccccc2)nc(OC)n1,> 49.2
11,O=C(c1ccccc1[N+](=O)[O-])N1CCC2(CC1)OCCO2,> 43.8
12,COc1cccc(NC(=S)NC(=O)/C=C/c2ccco2)c1,11.2
13,Cc1cc(C(=O)N(CCC#N)Cc2cccs2)no1,> 41.3
14,CC(=O)Nc1ccc(C(=O)NCCCSc2ccccc2)cc1,5.3
15,COc1ccc(N2C(=O)Cc3c2nc(N)c(C#N)c3N)cc1,13
16,CSc1nsc(SC)c1NC(=O)Nc1ccccc1C,1
17,COc1cccc(CN2CC=C(c3ccc(F)cc3)CC2)c1,10.3
18,S=C(Nc1ccccc1)N1CCC(Cc2ccccc2)CC1,14.5
19,COc1ccc(/C=C(\C#N)C(=O)c2cccn2C)cc1,5
